According to article PMC11423509, “Structural basis of Pseudomonas aeruginosa penicillin binding protein 3 inhibition by the siderophore-antibiotic cefiderocol” (Chemical Science, 2024):
Where two headings read alike, the source gives them in different places.

Tests used:
[1] = target: T1, P. aeruginosa PBP3 (Pseudomonas aeruginosa, UniProt G3XD46); assay: biochemical; conditions: 300 nM PBP3, 1.5 mM S2d, 0.5 mM mBBr; 10 min pre-incubation at 30 °C; mean ± standard error of three independent experiments; read-out: pIC50 (S2d, n = 3) (converted)
T1 construct: A gene encoding ftsI (PBP3, residues 50–579) from P. aeruginosa PAO1; made in house; host or cells: E. coli BL21(DE3)
T1 sequence (G3XD46 50-579): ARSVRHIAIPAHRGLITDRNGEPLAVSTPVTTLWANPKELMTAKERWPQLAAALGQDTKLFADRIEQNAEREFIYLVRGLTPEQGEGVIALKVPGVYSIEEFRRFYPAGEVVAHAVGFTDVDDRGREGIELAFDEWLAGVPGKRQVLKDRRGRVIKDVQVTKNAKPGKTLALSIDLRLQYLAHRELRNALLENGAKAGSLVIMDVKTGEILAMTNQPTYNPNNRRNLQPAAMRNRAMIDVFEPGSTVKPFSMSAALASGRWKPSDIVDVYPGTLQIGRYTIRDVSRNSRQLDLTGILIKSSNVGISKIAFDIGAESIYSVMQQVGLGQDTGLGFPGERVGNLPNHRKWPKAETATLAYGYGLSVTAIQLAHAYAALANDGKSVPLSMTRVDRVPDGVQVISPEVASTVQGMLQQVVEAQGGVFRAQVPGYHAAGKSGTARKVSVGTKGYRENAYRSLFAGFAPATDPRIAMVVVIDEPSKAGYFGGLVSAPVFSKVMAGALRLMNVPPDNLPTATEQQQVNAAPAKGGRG
Source text: (§1) PBP3 transpeptidases are proposed to be key targets for the cephalosporins and most other β-lactam antibiotics.[13] […] In one method, the thioester substrate analogue S2d is hydrolysed by PBP3 (ESI Scheme S1 ^†) releasing D-alanine and a free thiol.[15,16] The latter reacts with monobromobimane (mBBr), a fluorescent dye, enabling measurement of the turnover rate and determination of pIC50 values.
A positive control without inhibitor and a negative control lacking both enzyme and inhibitor were prepared. […]
(§2) independent repeats are shown. Error bars represent standard deviations from three technical replicates measured simultaneously. Average pIC50 values and inhibitor structures are provided […]
(§3) (1 picture or pasted object on this page, not shown here)

[2] = target: T1, P. aeruginosa PBP3; assay: Meropenem competition binding experiment, PBP3-observed mass spectrometry; conditions: 1 : 1 mixture of cephalosporin and meropenem (1 mM of each), 100 μM PBP3, 10 minutes co-incubation, quenched with formic acid
Procedure: To further probe the relative rates of reaction of the four β-lactams with PBP3, a competitive binding experiment employing PBP3-observed mass spectrometry (MS) was developed. […] Following 10 minutes co-incubation with PBP3, the reactions were quenched with formic acid and analysed by protein-observed MS (under denaturing conditions) (Fig. 1).
The spectra shown are representative of three technical repeats.
Samples were then diluted in LC-MS-grade water (15 μM final concentration) and analysed using a Waters XeVo G2-S mass spectrometer coupled to a Waters Acquity-UPLC. 5 μL samples were injected onto a ThermoFisher Scientific ProSwift RP-4H (1 mm × 50 mm) column pre-equilibrated in 95%v/v water, 5%v/v MeCN. The column was eluted with a linear gradient from 5 to 95v/v% MeCN in water over ten minutes. All solvents contained 0.1%v/v formic acid. Data were analysed using MassLynx Version 4.1. The mass spectra obtained were deconvoluted using the MaxEnt1 algorithm.

[3] = target: T1, P. aeruginosa PBP3; assay: biochemical; format: binding; conditions: 311 nM PBP3, 30 nM Bocillin-FL; 10 min pre-incubation at 30 °C; mean ± standard error of three independent experiments; read-out: pIC50 (bocillin, n = 3) (converted)
Source text: as §1
A positive control without inhibitor and a negative control lacking both enzyme and inhibitor were prepared. In both cases the inhibitor/enzyme solution was replaced with an equal volume of buffer. Following incubation of the inhibitor with PBP3, Bocillin-FL (30 nM) was dispensed to initiate the reaction. Following a further incubation (10 min, 30 °C, 300 rpm) the fluorescence polarisation was measured using a BMG PHERAstar Microplate Reader (λEx/λEm = 480/520 nm) using black 384-well microplates (Greiner). The percentage inhibition of Bocillin-FL binding was calculated for each compound concentration by normalising with control wells. These measurements were used to calculate relative pIC50 values using the log([inhibitor]) against normalised response, fit, using GraphPad Prism version 10.2 (ESI Fig. S7 ^†).
Figure S7: Dose response curves for (A) cefiderocol, (B) ceftazidime, (C) cefepime and […]
assays were carried out with 311 nM PBP3 and 30 nM Bocillin-FL, with 10 minute pre-incubation with inhibitor compounds in 50 mM potassium phosphate, pH 7.4. […]
as §2, §3

[4] = system: PBP3; design: method as in earlier work; conditions: Bocillin-FL assay under different conditions; ref 20 (Shapiro et al.); cited from earlier work

Structure (SMILES) | IC50 [1] [nM] | PBP3 complex formed in competition with meropenem (protein-observed MS) [2] | IC50 [3] [nM] | PBP3 inhibition relative to meropenem [4]
CC(C)(O/N=C(\C(=O)N[C@@H]1C(=O)N2C(C(=O)[O-])=C(C[N+]3(CCNC(=O)c4ccc(O)c(O)c4Cl)CCCC3)CS[C@H]12)c1csc(N)n1)C(=O)O [Cefiderocol, cefiderocol] | 50.1 | a small amount of cefiderocol modified PBP3 was observed | 100 | –
CC(C)(O/N=C(\C(=O)N[C@@H]1C(=O)N2C(C(=O)[O-])=C(C[n+]3ccccc3)CS[C@H]12)c1csc(N)n1)C(=O)O [Ceftazidime, ceftazidime] | 79.4 | exclusively meropenem-modified PBP3 | 251 | more inhibition with ceftazidime than meropenem
CO/N=C(\C(=O)N[C@@H]1C(=O)N2C(C(=O)[O-])=C(C[N+]3(C)CCCC3)CS[C@H]12)c1csc(N)n1 [Cefepime, cefepime] | 39.8 | ∼1 : 1 mixture of cefepime and meropenem modified PBP | 100 | –
